Data on 1 compound can be found in US20140242012A1, “METHODS FOR TREATING UV-DAMAGED SKIN AND SCC TUMORS AND FOR REMOVING TATTOOS WITH TOPICAL INGENOL MEBUTATE” (LEO Laboratories Limited, priority 2011, published 2014).

Test [1] concerns B16. Description: In vitro cytotoxicity assay (SRB). It is filed as cell-based, murine. The note with it: 48 h, DMSO. How it is done:
(§1) UV-13.1 and T7 cells are cultured in DMEM medium (Gibco Catalogue number 11960) supplemented with sodium-pyruvate (Gibco Catalogue number 11360-070, final concentration 1 mM), L-glutamine (Gibco, catalogue number 25030-081, final concentration 2 mM) and penicillin/streptomycin (Catalogue number 490269, diluted 1:100). B 16 cells are cultured in RPMI (QIMR) supplemented with 10% FBS and penicillin/streptomycin.
(§2) Cells are seeded with in 10,000 per microtitre wells in 100 μl of culture medium and incubated overnight to enable them to adhere to the bottom of the well. Quadruplicate wells aere treated with ingenol mebutate (PEP005 #250803 final concentration 0.232-232 μM) dissolved in DMSO (Sigma, D2650). […] Included in the assay were cells treated with vehicle alone (1% DMSO) and control. The treated cells are incubated at 37° C. for 48 h. Medium from the microtitre plates is tipped out; the wells are washed once with PBS to remove any excess FBS and then are fixed with methylated spirits for a minimum of 5 min. The methylated spirit is tipped off and the wells are washed once with tap water. A volume of 50 μl of sulforhodmain B (SRB) solution (0.4% SRB in 1% acetic acid) is added to each well and the plates are incubated at room temperature for a minimum of 15 min. The SRB solution is tipped off and the plates are washed twice with tap water and then twice with 1% acetic acid. The final wash of acetic acid is tapped out of the plate and 100 μl of 10 mM Tris base (unbuffered, pH>9) is added per well. The plate is incubated at room temperature for at least 5 min and then the absorbance is read on an ELISA plate reader at 564 nm.
(§3) To determine the in vitro sensitivity profile of T7 cells to ingenol mebutate treatment, a dose-response is generated by using the SRB stain to monitor cellular protein. Cells are seeded at high density and treated with ingenol mebutate (0.232-232 μM) for 48 h. The plates are fixed and are stained with SRB. […]
(§4) Cells are treated with 0.232-232 μM of ingenol mebutate. […] After 2 days, total protein is determined using SRB staining. […]

The test system of test [2] is T7 cells. The test is described as follows: In vitro cytotoxicity assay (SRB). It counts as cell-based, murine. The conditions noted are these: 48 h, DMSO. How it is done:
as §1, §2, §3, §4

The subject of test [3] is UV-13.1. Description: In vitro cytotoxicity assay (SRB). It is filed as cell-based, murine. The conditions noted are these: 48 h, DMSO. Here is the method:
as §1, §2, §3, §4

Test [4] relates to anti-T7 antibodies. Description: T7 ELISA of serum from cured mice. It counts as in vivo, SKH1/hr mice. Here is the method: Blood (˜50-100 μl) 1 s taken by tail bleeding the mice and is collected into 0.8 ml MiniCollect® Z Serum Separator tubes that are coated with spray-dried clot activator (Greiner bio-one Cat. Num. 450472) and are spun at 3000 rpm in a microfuge at room temperature for 10 min. The serum is collected and stored at 4° C. for analysis of anti-T7 antibodies by ELISA.
Preparation of T7 ELISA plates: T7 cells are grown to 90% confluence. The medium is aspirated and the cells are washed once with ice-cold PBS. T7 cells are harvested by scraping in PBS supplemented with protease inhibitor cocktail (PIC) and disrupted by sonication at 4° C. for 1-2 min. The T7 lys ate solution is supplemented with bicarbonate buffer (pH 9.6) containing PIC to a final volume of 40 ml and 70 μl/well is added to each well in a 96 well plate (Nunc, Invitro Technologies Cat. Num. 442404). The plates are dried overnight at 37° C.
The following day, the plates are blocked with 10% (w/v) skim milk in PBS for 1 h at room temperature. Meanwhile mouse serum is prepared by diluting 1:7 to 1:413343 in 3-fold dilutions in PBS/0.01% Tween20 (v/v)/1% (w/v) skim milk for the IgG2a plate and 1:10 10 […] in 3-fold dilutions for the IgG1 plate. […] Spectrophotometric readings are taken on an ELISA plate reader at 405 nm and graphs are generated using Graphpad Prism Version 5.01 software. […]

On to `C/C=C(/C)C(=O)O[C@H]1C(C)=C[C@]23C(=O)[C@@H](C=C(CO)[C@@H](O)[C@]12O)[C@H]1[C@@H](C[C@H]3C)C1(C)C` [ingenol mebutate], for which the “90% lethal dose (LD90)” value in test [1], in test [2] and in test [3] was 100 to 110 µM each time. In test [4] (cured female mice bled 107 days post treatment, 0.25% topical), the “IgG1 and IgG2a anti-T7 antibodies vs naïve mice” value is recorded as “significantly more”. Further, the anti-tumour antibodies entry in test [4] (separate group, day 156 post treatment) was “barely detectable”.
